The record followed here is patent US11208412B2 (DAEGU-GYEONGBUK MEDICAL INNOVATION FOUNDATION, priority 2017, dated 2021).

Holding throughout (assay): Kinase selectivity, DiscoverX scanMAX Kinase assay panel (% control)
Common to all, as to type: binding

Assay [1] addresses T1, kinases of the scanMAX Kinase assay panel (Homo sapiens, UniProt Q9H4B4).
T1 construct: purchased DiscoverX Co. (contract measurement) scanMAX Kinase assay panel
Particulars: PLK3; 1 uM. The gist of the method: (§1)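 Compounds were tested at 1 uM (in DMSO) against each panel kinase. % control was calculated as (compound − positive control)/(negative control − positive control)×100, where the positive control gives 0% and DMSO gives 100%. Activity toward a kinase was called at % control <35%.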

Assay [2] deals with T2, kinases of the scanMAX Kinase assay panel (Homo sapiens, UniProt Q15375).
T2 construct: purchased DiscoverX Co. (contract measurement) scanMAX Kinase assay panel
T2 sequence (Q15375 28-998): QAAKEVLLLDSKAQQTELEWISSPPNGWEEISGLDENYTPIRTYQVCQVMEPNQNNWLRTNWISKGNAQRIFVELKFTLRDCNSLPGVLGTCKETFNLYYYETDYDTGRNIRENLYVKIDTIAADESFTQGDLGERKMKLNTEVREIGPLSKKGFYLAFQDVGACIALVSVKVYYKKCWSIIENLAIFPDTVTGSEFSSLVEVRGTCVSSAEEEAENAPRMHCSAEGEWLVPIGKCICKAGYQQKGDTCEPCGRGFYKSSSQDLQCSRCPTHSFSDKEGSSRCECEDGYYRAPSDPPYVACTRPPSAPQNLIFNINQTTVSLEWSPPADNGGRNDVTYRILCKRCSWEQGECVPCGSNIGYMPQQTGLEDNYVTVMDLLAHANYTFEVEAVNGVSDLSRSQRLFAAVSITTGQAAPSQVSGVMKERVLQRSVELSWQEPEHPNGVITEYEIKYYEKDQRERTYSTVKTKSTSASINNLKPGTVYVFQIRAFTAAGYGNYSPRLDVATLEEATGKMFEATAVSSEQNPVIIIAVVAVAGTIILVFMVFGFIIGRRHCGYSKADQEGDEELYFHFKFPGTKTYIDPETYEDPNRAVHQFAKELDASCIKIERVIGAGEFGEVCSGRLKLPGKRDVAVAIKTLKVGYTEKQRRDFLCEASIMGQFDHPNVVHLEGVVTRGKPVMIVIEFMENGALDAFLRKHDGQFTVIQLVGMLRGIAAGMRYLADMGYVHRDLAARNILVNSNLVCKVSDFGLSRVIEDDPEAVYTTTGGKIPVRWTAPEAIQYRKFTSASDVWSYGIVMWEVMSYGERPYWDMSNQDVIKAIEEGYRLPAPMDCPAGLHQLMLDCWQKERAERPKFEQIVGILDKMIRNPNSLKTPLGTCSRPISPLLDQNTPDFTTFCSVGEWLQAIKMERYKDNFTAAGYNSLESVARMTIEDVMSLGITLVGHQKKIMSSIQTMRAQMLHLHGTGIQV
Conditions: EPHA7; 1 uM. The gist of the method: as §1

The target in assay [3] is T3, kinases of the scanMAX Kinase assay panel (Homo sapiens, UniProt Q96BR1).
T3 construct: purchased DiscoverX Co. (contract measurement) scanMAX Kinase assay panel
T3 sequence (Q96BR1 1-496): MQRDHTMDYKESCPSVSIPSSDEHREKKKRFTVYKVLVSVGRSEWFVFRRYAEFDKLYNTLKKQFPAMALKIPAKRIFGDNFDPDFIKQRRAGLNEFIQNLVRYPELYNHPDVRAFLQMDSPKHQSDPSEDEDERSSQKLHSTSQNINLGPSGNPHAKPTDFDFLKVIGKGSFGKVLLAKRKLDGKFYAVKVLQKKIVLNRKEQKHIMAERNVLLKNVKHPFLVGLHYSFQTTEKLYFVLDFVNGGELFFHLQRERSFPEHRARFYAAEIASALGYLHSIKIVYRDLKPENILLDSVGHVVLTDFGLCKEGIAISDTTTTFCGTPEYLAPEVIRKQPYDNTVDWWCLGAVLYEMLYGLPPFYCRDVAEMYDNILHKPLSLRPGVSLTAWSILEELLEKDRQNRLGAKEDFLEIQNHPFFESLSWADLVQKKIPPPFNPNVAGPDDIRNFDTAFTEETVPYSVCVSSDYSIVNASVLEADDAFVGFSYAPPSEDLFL
Particulars: kinase SGK3; 1 uM in DMSO. A digest of the protocol:
as §1

For assay [4], the target named is T4, kinases of the scanMAX Kinase assay panel (Homo sapiens, UniProt P00519, E255K).
T4 construct: purchased DiscoverX Co. (contract measurement) scanMAX Kinase assay panel
T4 sequence (P00519 whole entry E255K): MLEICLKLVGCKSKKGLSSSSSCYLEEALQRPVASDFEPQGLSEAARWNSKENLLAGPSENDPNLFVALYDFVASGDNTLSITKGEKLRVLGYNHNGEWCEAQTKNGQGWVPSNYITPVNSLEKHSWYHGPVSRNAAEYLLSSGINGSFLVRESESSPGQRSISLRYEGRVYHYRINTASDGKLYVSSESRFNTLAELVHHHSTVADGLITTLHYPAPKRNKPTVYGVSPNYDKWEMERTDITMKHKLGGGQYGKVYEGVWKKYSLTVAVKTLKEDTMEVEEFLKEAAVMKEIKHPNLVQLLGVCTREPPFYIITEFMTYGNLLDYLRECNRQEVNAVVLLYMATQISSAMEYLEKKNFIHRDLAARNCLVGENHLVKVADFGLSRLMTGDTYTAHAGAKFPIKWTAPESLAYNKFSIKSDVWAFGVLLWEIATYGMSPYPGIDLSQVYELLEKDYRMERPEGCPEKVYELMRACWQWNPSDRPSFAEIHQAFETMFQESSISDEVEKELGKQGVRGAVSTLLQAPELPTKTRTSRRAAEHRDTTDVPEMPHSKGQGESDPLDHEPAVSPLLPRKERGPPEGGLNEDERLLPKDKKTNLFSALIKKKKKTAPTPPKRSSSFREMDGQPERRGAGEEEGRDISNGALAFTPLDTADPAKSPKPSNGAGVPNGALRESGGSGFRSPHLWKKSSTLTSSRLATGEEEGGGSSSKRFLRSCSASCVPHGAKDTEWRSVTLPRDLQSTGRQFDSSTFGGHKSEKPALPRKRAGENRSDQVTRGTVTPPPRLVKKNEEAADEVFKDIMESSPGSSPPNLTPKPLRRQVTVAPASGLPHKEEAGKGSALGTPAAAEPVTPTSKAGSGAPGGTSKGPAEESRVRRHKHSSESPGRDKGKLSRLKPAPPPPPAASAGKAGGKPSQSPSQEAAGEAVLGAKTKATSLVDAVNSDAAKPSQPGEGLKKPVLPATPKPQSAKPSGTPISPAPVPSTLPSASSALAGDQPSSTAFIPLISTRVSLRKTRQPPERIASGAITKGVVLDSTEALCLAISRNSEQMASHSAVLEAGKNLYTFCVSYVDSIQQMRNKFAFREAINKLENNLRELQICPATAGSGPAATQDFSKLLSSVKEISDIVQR
Particulars: ABL1(E255K)-phosphorylated; 1 uM. A digest of the protocol:
as §1

The target of assay [5] is T5, kinases of the scanMAX Kinase assay panel (Homo sapiens, UniProt P00533, DEL752-759).
T5 construct: purchased DiscoverX Co. (contract measurement) scanMAX Kinase assay panel
Conditions: EGFR(S752-I759de1); 1 uM. A digest of the protocol:
as §1

Assay [6] concerns the target T6, kinases of the scanMAX Kinase assay panel (Homo sapiens, UniProt P52333).
T6 construct: purchased DiscoverX Co. (contract measurement) scanMAX Kinase assay panel
T6 sequence (P52333 1-1124): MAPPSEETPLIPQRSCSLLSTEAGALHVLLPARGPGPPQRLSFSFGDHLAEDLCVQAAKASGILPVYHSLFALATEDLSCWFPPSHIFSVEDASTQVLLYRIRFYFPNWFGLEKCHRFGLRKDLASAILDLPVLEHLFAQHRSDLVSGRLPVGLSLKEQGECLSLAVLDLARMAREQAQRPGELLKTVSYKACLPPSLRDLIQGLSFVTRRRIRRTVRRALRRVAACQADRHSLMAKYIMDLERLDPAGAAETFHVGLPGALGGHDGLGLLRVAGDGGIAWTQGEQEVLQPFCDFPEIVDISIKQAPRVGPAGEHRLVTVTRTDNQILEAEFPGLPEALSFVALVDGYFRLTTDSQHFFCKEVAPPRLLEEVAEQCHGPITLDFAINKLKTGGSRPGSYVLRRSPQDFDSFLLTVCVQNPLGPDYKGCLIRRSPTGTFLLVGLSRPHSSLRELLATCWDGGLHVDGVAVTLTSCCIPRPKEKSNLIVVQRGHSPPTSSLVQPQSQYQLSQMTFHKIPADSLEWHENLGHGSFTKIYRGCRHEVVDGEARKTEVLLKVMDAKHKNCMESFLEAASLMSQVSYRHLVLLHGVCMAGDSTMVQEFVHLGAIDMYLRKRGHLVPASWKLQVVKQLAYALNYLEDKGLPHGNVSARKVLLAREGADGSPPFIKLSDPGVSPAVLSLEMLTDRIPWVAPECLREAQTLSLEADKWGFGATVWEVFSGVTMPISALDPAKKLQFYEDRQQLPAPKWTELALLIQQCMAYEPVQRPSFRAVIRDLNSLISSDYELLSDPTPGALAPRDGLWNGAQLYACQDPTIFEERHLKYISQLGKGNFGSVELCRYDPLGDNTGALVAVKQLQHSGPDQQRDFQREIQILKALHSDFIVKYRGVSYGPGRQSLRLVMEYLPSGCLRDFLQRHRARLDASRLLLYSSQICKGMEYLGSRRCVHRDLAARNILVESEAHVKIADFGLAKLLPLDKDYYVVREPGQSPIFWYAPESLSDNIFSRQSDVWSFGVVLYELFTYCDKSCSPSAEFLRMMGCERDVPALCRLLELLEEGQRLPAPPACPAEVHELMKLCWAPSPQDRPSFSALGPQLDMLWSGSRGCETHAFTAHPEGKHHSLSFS
Conditions: JAK3(JH1domain-catalytic); 1 uM. A digest of the protocol: as §1

Assay [7] addresses T7, kinases of the scanMAX Kinase assay panel (Homo sapiens, UniProt Q9BYP7).
T7 construct: purchased DiscoverX Co. (contract measurement) scanMAX Kinase assay panel
Particulars: kinase WNK3; 1 uM in DMSO. The gist of the method: as §1

Assay [8] has as its target T8, kinases of the scanMAX Kinase assay panel (Homo sapiens, UniProt Q86UE8).
T8 construct: purchased DiscoverX Co. (contract measurement) scanMAX Kinase assay panel
Particulars: kinase TLK2; 1 uM in DMSO. The gist of the method:
as §1

Assay [9] concerns the target T9, kinases of the scanMAX Kinase assay panel (Homo sapiens, UniProt Q00537).
T9 construct: purchased DiscoverX Co. (contract measurement) scanMAX Kinase assay panel
Particulars: PCTK2; 1 uM. A digest of the protocol:
as §1

Assay [10] deals with T10, kinases of the scanMAX Kinase assay panel (Homo sapiens, UniProt P42336, E542K).
T10 construct: purchased DiscoverX Co. (contract measurement) scanMAX Kinase assay panel
T10 sequence (P42336 whole entry E542K): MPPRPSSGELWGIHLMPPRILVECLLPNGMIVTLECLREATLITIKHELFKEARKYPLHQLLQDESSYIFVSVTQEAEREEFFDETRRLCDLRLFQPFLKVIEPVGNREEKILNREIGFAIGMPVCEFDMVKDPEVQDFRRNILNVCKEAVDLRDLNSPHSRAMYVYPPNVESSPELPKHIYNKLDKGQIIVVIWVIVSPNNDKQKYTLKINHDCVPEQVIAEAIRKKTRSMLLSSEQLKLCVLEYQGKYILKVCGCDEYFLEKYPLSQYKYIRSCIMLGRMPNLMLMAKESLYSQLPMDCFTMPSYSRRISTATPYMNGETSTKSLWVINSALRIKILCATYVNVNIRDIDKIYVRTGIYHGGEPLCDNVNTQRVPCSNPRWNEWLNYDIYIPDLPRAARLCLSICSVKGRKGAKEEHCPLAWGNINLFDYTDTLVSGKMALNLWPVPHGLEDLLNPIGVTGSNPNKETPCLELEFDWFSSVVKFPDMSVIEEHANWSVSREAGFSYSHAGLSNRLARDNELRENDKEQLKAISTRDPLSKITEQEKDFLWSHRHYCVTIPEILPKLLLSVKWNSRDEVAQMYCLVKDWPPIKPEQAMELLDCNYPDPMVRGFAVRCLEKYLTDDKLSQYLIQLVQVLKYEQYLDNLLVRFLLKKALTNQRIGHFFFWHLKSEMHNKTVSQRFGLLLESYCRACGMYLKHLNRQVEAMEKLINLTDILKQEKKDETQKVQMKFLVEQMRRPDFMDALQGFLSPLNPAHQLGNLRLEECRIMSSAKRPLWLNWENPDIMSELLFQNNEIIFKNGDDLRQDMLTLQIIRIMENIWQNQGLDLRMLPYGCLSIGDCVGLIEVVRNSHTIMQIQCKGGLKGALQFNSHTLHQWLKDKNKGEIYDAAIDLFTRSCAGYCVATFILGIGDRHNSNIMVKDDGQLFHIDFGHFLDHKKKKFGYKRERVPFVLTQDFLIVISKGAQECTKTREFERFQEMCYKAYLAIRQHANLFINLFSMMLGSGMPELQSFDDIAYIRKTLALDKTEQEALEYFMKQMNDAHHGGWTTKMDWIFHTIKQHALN
Conditions: PIK3CA(E542K); 1 uM. A digest of the protocol:
as §1

The target in assay [11] is T11, kinases of the scanMAX Kinase assay panel (Homo sapiens, UniProt Q9HCP0).
T11 construct: purchased DiscoverX Co. (contract measurement) scanMAX Kinase assay panel
Conditions: CSNK1G1; 1 uM. A digest of the protocol:
as §1

For assay [12], the target named is T12, kinases of the scanMAX Kinase assay panel (Homo sapiens, UniProt Q9Y243).
T12 construct: purchased DiscoverX Co. (contract measurement) scanMAX Kinase assay panel
Conditions: AKT3; 1 uM. A digest of the protocol:
as §1

Assay [13] concerns the target T13, kinases of the scanMAX Kinase assay panel (Homo sapiens, UniProt Q13627).
T13 construct: purchased DiscoverX Co. (contract measurement) scanMAX Kinase assay panel
Particulars: DYRK1A; 1 uM. The gist of the method: as §1

T7 sequence (Q9BYP7 whole entry): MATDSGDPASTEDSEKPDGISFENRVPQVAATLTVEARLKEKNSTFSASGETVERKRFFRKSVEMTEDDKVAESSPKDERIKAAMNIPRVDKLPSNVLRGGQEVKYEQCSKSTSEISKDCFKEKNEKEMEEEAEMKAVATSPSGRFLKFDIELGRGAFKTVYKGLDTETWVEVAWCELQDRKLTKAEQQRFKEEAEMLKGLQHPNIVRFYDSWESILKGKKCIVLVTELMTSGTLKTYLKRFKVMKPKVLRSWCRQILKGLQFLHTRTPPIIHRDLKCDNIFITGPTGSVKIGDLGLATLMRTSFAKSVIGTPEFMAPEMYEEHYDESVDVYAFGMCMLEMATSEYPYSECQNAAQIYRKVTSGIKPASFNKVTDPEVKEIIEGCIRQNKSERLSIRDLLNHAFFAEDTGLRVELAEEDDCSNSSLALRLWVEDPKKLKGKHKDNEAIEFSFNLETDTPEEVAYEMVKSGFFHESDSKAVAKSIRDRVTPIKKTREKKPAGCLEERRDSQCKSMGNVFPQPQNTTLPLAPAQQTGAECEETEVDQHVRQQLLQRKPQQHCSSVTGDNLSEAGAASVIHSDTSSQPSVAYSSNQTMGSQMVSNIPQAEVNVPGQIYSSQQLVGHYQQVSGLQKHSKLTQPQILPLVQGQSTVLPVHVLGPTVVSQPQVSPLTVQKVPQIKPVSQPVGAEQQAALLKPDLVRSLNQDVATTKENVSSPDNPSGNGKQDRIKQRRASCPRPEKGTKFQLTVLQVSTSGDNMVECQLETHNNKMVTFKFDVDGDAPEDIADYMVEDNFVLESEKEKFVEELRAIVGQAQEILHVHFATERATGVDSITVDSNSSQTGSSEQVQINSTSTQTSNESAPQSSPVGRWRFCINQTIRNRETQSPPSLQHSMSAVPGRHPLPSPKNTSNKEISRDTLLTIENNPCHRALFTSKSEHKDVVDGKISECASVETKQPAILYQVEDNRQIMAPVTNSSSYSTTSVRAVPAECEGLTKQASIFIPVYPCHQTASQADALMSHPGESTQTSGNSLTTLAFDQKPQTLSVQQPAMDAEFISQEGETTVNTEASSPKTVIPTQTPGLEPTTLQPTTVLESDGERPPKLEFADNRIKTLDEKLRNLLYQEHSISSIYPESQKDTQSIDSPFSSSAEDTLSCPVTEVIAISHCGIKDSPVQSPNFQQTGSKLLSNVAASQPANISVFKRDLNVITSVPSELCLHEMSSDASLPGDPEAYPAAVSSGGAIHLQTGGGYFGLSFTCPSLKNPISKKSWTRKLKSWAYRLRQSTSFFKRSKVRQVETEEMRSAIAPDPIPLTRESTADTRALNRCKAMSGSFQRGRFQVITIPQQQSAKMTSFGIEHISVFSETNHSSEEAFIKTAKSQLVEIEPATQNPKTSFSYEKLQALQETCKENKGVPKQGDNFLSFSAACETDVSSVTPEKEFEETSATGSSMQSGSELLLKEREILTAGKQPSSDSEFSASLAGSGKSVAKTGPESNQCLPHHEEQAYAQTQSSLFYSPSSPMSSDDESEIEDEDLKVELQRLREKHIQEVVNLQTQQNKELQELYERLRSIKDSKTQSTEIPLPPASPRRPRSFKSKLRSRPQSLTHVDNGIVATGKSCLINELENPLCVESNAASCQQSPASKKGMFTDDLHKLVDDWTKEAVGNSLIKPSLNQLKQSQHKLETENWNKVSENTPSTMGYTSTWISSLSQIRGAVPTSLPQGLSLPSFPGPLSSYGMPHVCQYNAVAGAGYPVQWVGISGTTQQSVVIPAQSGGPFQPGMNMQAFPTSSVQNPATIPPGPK

As to `CNc1nc(Nc2ccc(C(=O)N3CCOCC3)cc2OC)nc2[nH]cc(C#N)c12` [Example 1, 2-((2-methoxy-4-(morpholine-4-carbonyl)phenyl)amino)-4-(methylamino)-7H-pyrrolo[2,3-d]pyrimidine-5-carbonitrile], the remaining binding at 1 µM worked out at 57% in [1]; 97% in assay [2]; 63% in assay [3]; 91% in assay [4]; 76% in assay [5]; 64% in [6]. For the same compound, the remaining binding at 1 µM was 68% in [7]; 95% in assay [8]; 98% in assay [9]; 74% in assay [10]; 95% in assay [11]; 70% in [12]. The same compound displayed a remaining binding at 1 µM in assay [13] of 4.1%.

With `CC1(Nc2nc(Nc3cnn([C@H]4CCN(C5COC5)C[C@@H]4F)c3Cl)nc3[nH]cc(C#N)c23)CC1` [Example 52, 2-((5-chloro-1-((3S,4S)-3-fluoro-1-(oxetane-3-yl)piperidine-4-yl)-1H-pyrazole-4-yl)amino)((1-methylcyclopropyl)amino)-7H-pyrrolo[2,3-d]pyrimidine-5-carbonitrile], the remaining binding at 1 µM amounted to 99% in assay [1]; 20% in assay [2]; 70% in [3]; 0.6% in assay [4]; 94% in assay [5]; 0% in assay [6]. In addition, the remaining binding at 1 µM in assay [7] came to 55%; in assay [8], 42%; in assay [9], 88%; in assay [10] it was 77%; in [11] it was 6.4%; in assay [12], 4.5%. Moreover, the remaining binding at 1 µM in assay [13] amounted to 0.15%.

On to `CCNc1nc(Nc2ccc(C(=O)N3CCC(N4CCOCC4)CC3)cc2OC)nc2[nH]cc(C(F)(F)F)c12` [Example 104, (4-((4-(ethylamino)-5-(trifluoromethyl)-7H-pyrrolo[2,3-d]pyrimidine-2-yl)amino)-3-methoxyphenyl)(4-morpholinopiperidine-1-yl)methanone], for which the remaining binding at 1 µM in assay [1] came out at 89%; in assay [2] it was 94%; in assay [3], 87%; in assay [4] it was 100%; in [5], 100%; in assay [6], 100%. The remaining binding at 1 µM stood at 100% in [7]; 93% in [8]; 99% in assay [9]; 83% in assay [10]; 73% in assay [11]; 100% in assay [12]. The same compound gave a remaining binding at 1 µM in [13] of 0.05%.
